# Laboratory results published in PMC11494503, “Next Generation SICLOPPS Screening for the Identification of Inhibitors of the HIF-1α/HIF-1β Protein–Protein Interaction” (ACS Chemical Biology, 2024).
# Where two headings read alike, the source gives them in different places. Peptide text beside a SMILES is read from it.
# Experiments:
# HIF-1α/HIF-1β PPI = assay: SICLOPPS CX5 library screen in HIF-1 RTHS with biopanning and NGS; assay type: cell-based, E. coli; settings: after 2 rounds of biopanning
# Description: The HIF-1 RTHS links the PPI between HIF-1α-P22 and HIF-1β-434 fusion proteins to the life/death of the host E. coli via three reporter genes.[14] Interaction of HIF-1α and HIF-1β results in the formation of a chimeric P22/434 repressor that inhibits the transcription of the KanR and His3 reporter genes, which are required for cell survival in selection media (Figure S1). Disruption of the HIF-1α/HIF-1β PPI also disrupts the repressor complex, leading to transcription of the reporter genes and survival of colonies that contain cyclic peptide HIF-1 inhibitors. Thus, cells containing cyclic peptide inhibitors of the targeted PPI will survive and grow on selective media, whereas all others will not. The HIF-1 RTHS cells were transformed with the sequenced CX5 library and, after recovery, plated onto a selective medium. After incubation for 48 h at 37 °C, selection plates were scraped to collect all colonies, and the SICLOPPS plasmids were isolated. The extein coding region of these plasmids was subsequently sequenced by NGS. We observed sequence enrichment after one round of biopanning, with the three sequences (CAAAAA, CRLYVL, and CVTYVL) making up 7.8% of the entire library with over 10 000 copies each per 1 M reads (Figure 2a). The prevalence of the control sequence was reduced by 44% from 80 000 to 45 000 copies per million reads, which further indicated enrichment of cyclic peptide inhibitors of the HIF-1α/HIF-1β PPI in the RTHS. The next 47 sequences were present with over 1000 copies after round 1 which made up a further 15% of the library (Figure 2a). HIF-1 RTHS cells were transformed with the SICLOPPS plasmid library isolated from round 1 of biopanning, for a second round of selection. After incubation, all colonies were scraped, and plasmids were isolated and sequenced by NGS as before. We observed further sequence enrichment after the second round of biopanning, evident by the shift of the library population from the mostly low-prevalence sequences in both the naïve library and after one round of biopanning to mostly highly prevalent cyclic peptide sequences after round 2 of biopanning (Figure 2b). With 159 000 copies per 1 M reads, the most prevalent sequence is CRTYIL, while the next 14 sequences were all present with more than 10 000 copies per 1 M. The top 15 sequences make up over 50% of the entire library. The CA5 internal standard dropped to 0.5%, providing further evidence of enrichment of active inhibitors during biopanning.
# All reagents were purchased from Fisher Scientific or Sigma Aldrich UK unless specified otherwise.
# Restriction enzymes and microbiology reagents were purchased from New England Biolabs Inc., FisherScientific (UK) or Promega (UK) and were used as directed by the manufacturer. Primers and oligonucleotides were synthesised by Integrated DNA Technologies (UK). DNA sequencing was carried out by Eurofins MWG Operon (Germany).
# Construction of the RTHS and SICLOPPS library was conducted as previously described.2 […]
# Electrocompetent RTHS-HIF 1 cells2 were transformed with 100 ng freshly prepared SICLOPPS CX5 library, prepared as previously detailed.3 The recovery mixture was plated on 6 square plates containing M9 minimal media supplemented with 50 µg/mL ampicillin, 25 µg/mL Spectinomycin, 50 µg/mL kanamycin, 35 µg/mL chloramphenicol, 100 µM IPTG, 6.5 µM L-arabinose and 7.5 mM 3-amino triazole and incubate at 37 °C for 48 h. To ensure sufficie transformation efficiency, 10 µL transformation mixture was subjected to 10-fold serial dilutions plated on LB-agar with 35 µg/m […]
# Chloramphenicol. […] All cells were […]
# then harvested by resuspending the colonies in a total of 50 mL LB medium and transferring to a centrifuge tube and centrifugation for 30 min at 4000 rpm and 4°C. The cell pellet was then subjected to maxi prep (GeneJET Plasmid Maxiprep kit Thermo Scientific) and the resulting plasmid library was used for the next round of biopanning and NGS. The second round of bio panning was […]
# PAS-B domain of HIF-1α = target: T1, PAS-B domain of HIF-1α (Homo sapiens, UniProt Q16665); assay: Microscale thermophoresis (MST) binding to HIF-1α PAS-B domain
# T1 construct: The HIF-1a PAS-B domain was expressed and purified as previously described; made in house
# T1 sequence (Q16665 228-298 limits assumed): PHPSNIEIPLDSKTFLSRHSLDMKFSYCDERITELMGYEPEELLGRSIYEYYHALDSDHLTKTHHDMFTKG
# Experimental: We synthesized the top 20 cyclic peptides from the ranking approach. We also synthesized cyclo-CLLFVY as a control.[14] These compounds were assessed for binding to the PAS-B domain of HIF-1α by microscale thermophoresis (MST). […]
# [1] = MST, HIF-1α PAS-B, mean (n = 3) ± SEM, read-out: KD
Compound,Enrichment after pan 2 [%] (HIF-1α/HIF-1β PPI),Kd (PAS-B domain of HIF-1α; [1]) [µM],Kd (PAS-B domain of HIF-1α) [µM],"fold better KD than the control peptide cyclo-CLLFVY in the same assay (PAS-B domain of HIF-1α; MST, HIF-1α) [fold]"
"CC(C)C[C@@H]1NC(=O)[C@H](CC(N)=O)NC(=O)[C@H](CC(C)C)NC(=O)[C@H](CC(C)C)NC(=O)[C@H](Cc2ccccc2)NC(=O)[C@H](CS)NC1=O [CFLLNL, cyclo-CFLLNL] (cyclo(CFLLNL))",1.509,103 ± 8,,
CC(C)C[C@@H]1NC(=O)[C@H](CCCCN)NC(=O)[C@H](CS)NC(=O)[C@H](CC(C)C)NC(=O)[C@H](CC(C)C)NC(=O)[C@H](Cc2ccccc2)NC1=O [CKLFLL] (cyclo(CKLFLL)),0.6884,,,
"CC(C)C[C@@H]1NC(=O)[C@H](CC(C)C)NC(=O)[C@H](Cc2ccccc2)NC(=O)[C@H](C(C)C)NC(=O)[C@H](CCCCN)NC(=O)[C@H](CS)NC1=O [CKVFLL, cyclo-CKVFLL] (cyclo(CKVFLL))",3.064,42 ± 12,,
"CC(C)C[C@@H]1NC(=O)[C@H](CS)NC(=O)[C@H](Cc2ccccc2)NC(=O)[C@H](CC(C)C)NC(=O)[C@H](CC(C)C)NC(=O)[C@H](CS)NC1=O [CLLFCL, cyclo-CLLFCL] (cyclo(CLCLLF))",1.071,,0.47 ± 0.01,> 80
"CC[C@H](C)[C@@H]1NC(=O)[C@H](Cc2ccccc2)NC(=O)[C@H]([C@@H](C)CC)NC(=O)[C@H](CCCNC(=N)N)NC(=O)[C@H](CS)NC(=O)[C@H](CCSC)NC1=O [CRIFIM, cyclo-CRIFIM] (cyclo(CRIFIM))",1.319,26 ± 1,,
"CC[C@H](C)[C@@H]1NC(=O)[C@H](CC(C)C)NC(=O)[C@H]([C@@H](C)CC)NC(=O)[C@H](CCCNC(=N)N)NC(=O)[C@H](CS)NC(=O)[C@H](CC(C)C)NC1=O [CRILIL, cyclo-CRILIL] (cyclo(CRILIL))",2.819,20 ± 1,,
"CC[C@H](C)[C@@H]1NC(=O)[C@H](CC(C)C)NC(=O)[C@H](CCCNC(=N)N)NC(=O)[C@H](CS)NC(=O)[C@H](C(C)C)NC(=O)[C@H]([C@@H](C)CC)NC1=O [CRLIIV, cyclo-CRLIIV] (cyclo(CRLIIV))",1.138,28 ± 2,,
"CC[C@H](C)[C@@H]1NC(=O)[C@H](CC(C)C)NC(=O)[C@H](CC(C)C)NC(=O)[C@H](CCCNC(=N)N)NC(=O)[C@H](CS)NC(=O)[C@H](CC(C)C)NC1=O [CRLLIL, cyclo-CRLLIL] (cyclo(CRLLIL))",1.196,20 ± 1,,
"CC[C@H](C)[C@@H]1NC(=O)[C@H](Cc2ccc(O)cc2)NC(=O)[C@H](CC(C)C)NC(=O)[C@H](CCCNC(=N)N)NC(=O)[C@H](CS)NC(=O)[C@H](C(C)C)NC1=O [CRLYIV, cyclo-CRLYIV] (cyclo(CRLYIV))",2.142,122 ± 4,,
"CC(C)C[C@@H]1NC(=O)[C@H](CCCNC(=N)N)NC(=O)[C@H](CS)NC(=O)[C@H](CC(C)C)NC(=O)[C@H](C(C)C)NC(=O)[C@H](Cc2ccc(O)cc2)NC1=O [CRLYVL, cyclo-CRLYVL] (cyclo(CRLYVL))",8.962,150 ± 40,,
"CC[C@H](C)[C@@H]1NC(=O)[C@H](Cc2ccccc2)NC(=O)[C@H](CCSC)NC(=O)[C@H](CCCNC(=N)N)NC(=O)[C@H](CS)NC(=O)[C@H](CC(C)C)NC1=O [CRMFIL, cyclo-CRMFIL] (cyclo(CRMFIL))",0.6746,20 ± 4,,
"CSCC[C@@H]1NC(=O)[C@H](CCCNC(=N)N)NC(=O)[C@H](CS)NC(=O)[C@H](CC(C)C)NC(=O)[C@H](C(C)C)NC(=O)[C@H](Cc2ccc(O)cc2)NC1=O [CRMYVL, cyclo-CRMYVL] (cyclo(CRMYVL))",,58 ± 17,,
"CC[C@H](C)[C@@H]1NC(=O)[C@H](CCCNC(=N)N)NC(=O)[C@H](CCCNC(=N)N)NC(=O)[C@H](CS)NC(=O)[C@H](CC(C)C)NC(=O)[C@H]([C@@H](C)CC)NC1=O [CRRIIL, cyclo-CRRIIL] (cyclo(CRRIIL))",0.9912,8 ± 1,,
CC(C)C[C@@H]1NC(=O)[C@H](C(C)C)NC(=O)[C@H](Cc2ccccc2)NC(=O)[C@H](CO)NC(=O)[C@H](CCCNC(=N)N)NC(=O)[C@H](CS)NC1=O [CRSFVL] (cyclo(CRSFVL)),0.6155,,,
"CC[C@H](C)[C@@H]1NC(=O)[C@H]([C@@H](C)O)NC(=O)[C@H](CCCNC(=N)N)NC(=O)[C@H](CS)NC(=O)[C@H](CC(C)C)NC(=O)[C@H](C(C)C)NC1=O [CRTIVL, cyclo-CRTIVL] (cyclo(CRTIVL))",3.427,> 250,,
"CC[C@H](C)[C@@H]1NC(=O)[C@H](Cc2ccc(O)cc2)NC(=O)[C@H]([C@@H](C)O)NC(=O)[C@H](CCCNC(=N)N)NC(=O)[C@H](CS)NC(=O)[C@H](CC(C)C)NC1=O [CRTYIL, cyclo-CRTYIL] (cyclo(CRTYIL))",15.78,24 ± 1,,
CC(C)C[C@@H]1NC(=O)[C@H](CC(C)C)NC(=O)[C@H](Cc2ccccc2)NC(=O)[C@H](C(C)C)NC(=O)[C@H](CCCNC(=N)N)NC(=O)[C@H](CS)NC1=O [CRVFLL] (cyclo(CRVFLL)),0.6625,,,
"CC(C)C[C@@H]1NC(=O)[C@H](C(C)C)NC(=O)[C@H](CC(C)C)NC(=O)[C@H](C(C)C)NC(=O)[C@H](CCCNC(=N)N)NC(=O)[C@H](CS)NC1=O [CRVLVL, cyclo-CRVLVL] (cyclo(CRVLVL))",0.8272,201 ± 16,,
"CC[C@H](C)[C@@H]1NC(=O)[C@H](Cc2ccc(O)cc2)NC(=O)[C@H](C(C)C)NC(=O)[C@H](CCCNC(=N)N)NC(=O)[C@H](CS)NC(=O)[C@H](CC(C)C)NC1=O [CRVYIL, cyclo-CRVYIL] (cyclo(CRVYIL))",1.306,31 ± 6,,
"CC[C@H](C)[C@@H]1NC(=O)[C@H](CC(C)C)NC(=O)[C@H](Cc2ccc(O)cc2)NC(=O)[C@H](CCCNC(=N)N)NC(=O)[C@H](CS)NC(=O)[C@H](CC(C)C)NC1=O [CRYLIL, cyclo-CRYLIL] (cyclo(CRYLIL))",0.6083,20 ± 2,,
"CC(C)C[C@@H]1NC(=O)[C@H](C(C)C)NC(=O)[C@H](Cc2ccc(O)cc2)NC(=O)[C@H](Cc2ccc(O)cc2)NC(=O)[C@H](CCCNC(=N)N)NC(=O)[C@H](CS)NC1=O [CRYYVL, cyclo-CRYYVL] (cyclo(CRYYVL))",0.6784,59 ± 7,,
"CC(C)C[C@@H]1NC(=O)[C@H](Cc2c[nH]c3ccccc23)NC(=O)[C@H](C(C)C)NC(=O)[C@H](CO)NC(=O)[C@H](CS)NC(=O)[C@H](Cc2ccc(O)cc2)NC1=O [CSVWLY, cyclo-CSVWLY] (cyclo(CSVWLY))",2.022,103 ± 28,,
"CC[C@H](C)[C@@H]1NC(=O)[C@H](CCCNC(=N)N)NC(=O)[C@H](CCSC)NC(=O)[C@H](C(C)C)NC(=O)[C@H](CS)NC(=O)[C@H](C)NC1=O [CVMRIA, cyclo-CVMRIA] (cyclo(ACVMRI))",0.6968,168 ± 40,,
cyclo-CVTYVL,3.732,,,
